# According to patent US20110160222A1, “MODULATORS OF GLUCOSE HOMEOSTASIS FOR THE TREATMENT OF DIABETES AND METABOLIC DISORDERS” (Metabolex, Inc., priority 2008, published 2011):
# Biological target: T1, GPR119 (Homo sapiens, UniProt Q8TDV5)
# T1 construct: expressed in transfected cells
# T1 sequence (Q8TDV5 1-335): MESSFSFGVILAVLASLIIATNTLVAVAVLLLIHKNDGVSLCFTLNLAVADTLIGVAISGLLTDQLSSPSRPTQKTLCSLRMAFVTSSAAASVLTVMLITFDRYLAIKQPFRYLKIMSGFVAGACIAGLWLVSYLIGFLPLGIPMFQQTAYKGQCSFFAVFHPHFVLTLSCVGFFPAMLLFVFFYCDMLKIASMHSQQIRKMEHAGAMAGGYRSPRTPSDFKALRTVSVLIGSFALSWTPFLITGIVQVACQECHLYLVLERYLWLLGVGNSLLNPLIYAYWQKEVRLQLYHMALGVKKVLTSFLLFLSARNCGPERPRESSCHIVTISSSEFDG
# Assay: Stimulation of cAMP in CHO cells stably expressing GPR119 (HTRF/FRET cAMP immunoassay)
# Assay type: cell-based
# Details: 3 μM compound, 30 min, relative to maximal activity (=100%) of reference agonist 4-(4-{4-Nitro-3-[4-(pyridin-2-ylsulfanyl)-piperidin-1-yl]-phenoxy}-phenyl)-butan-2-one or 4-[6-(4-Methanesulfonyl-phenyl-amino)-5-nitro-pyrimidin-4-yl-oxy]-piperidine-1-carboxylic acid tert-butyl ester
# Protocol: This assay was developed using a stable cell line expressing GPR119, generated as follows. GPR119 (co-pending, co-owned patent application U.S. Ser. No. 11/964,461) was cloned into Gateway pDEST 40vector (Invitrogen), using the Gateway cloning system (invitrogen) according to the manufacturer's instructions. A stable cell line was generated by transfecting a 10 cm plate of CHO cells (source) with 8 μg of this construct using Transit-CHO transfection kit (Mirus). CHO cells were plated the day prior to transfection at a density of 3,000,000 cells/plate. Clones were selected using the antibiotic G418 at 500 μg/mL. 23 clones were picked and assayed for the expression of the receptor by measuring changes in intracellular cAMP levels in response to a known GPR119 agonist.
# To measure cAMP activity in response to GPR119 agonist, the clones were plated in 96 well plates at 17500 cells per well. On the day after plating, cells were incubated with the GPR119 agonist at 10 μM for 30 minutes in Ham's F12 Media (Gibco) with 0.04% DMSO. cAMP was measured using the cAMP dynamic kit from C is Bio (Bedford, Mass.) according to the manufacturer's instructions. Briefly, cells were lysed, and cAMP levels determined by competitive immunoassay using D2 labeled cAMP, and europium cryptate tagged anti cAMP antibody. When in close proximity, the D2 and europium cryptate undergo fluorescence resonance energy transfer (FRET), which is measured as a fluorescence ratio (665 nm/620 nm). Unlabelled cAMP in the cell lysate competed with the D2 labeled cAMP for the europium crypate labeled antibody. The resulting decrease in FRET signal corresponded to intracellular cAMP levels. Fluorescence was read on a BMG Labtech PHERAstar, software version 1.50.
# The clone with the greatest response to IC-GPCR2 agonist was selected for the screening assay.
# Compounds were dissolved in 100% DMSO to a concentration of […] to provide stock solutions. To determine activity against GPR119, compounds were incubated with GPR119 stably expressing cells (described above), at 6-8 concentrations ranging from 0.00003 to 10 micromolar, in 96 well plates, in 50 μl of Ham's F12 media for 30 minutes. Cells were plated at 17500 cells per well 1 day before running the assay. All compounds were also screened against the parental CHO cells. cAMP was measured using the cAMP dynamic kit from C is Bio (Bedford, Mass.), according to the manufacturer's instructions. Briefly, cells were lysed and cAMP levels determined by competitive immunoassay using D2 labeled cAMP, and europium cryptate tagged anti cAMP antibody. When in close proximity, the D2 and europium cryptate undergo fluorescence resonance energy transfer (FRET), which is measured as a fluorescence ratio (665 nm/620 nm). Unlabelled cAMP in the cell lysate competed with the D2 labeled cAMP for the europium crypate labeled antibody. The resulting decrease in FRET signal corresponded to intracellular cAMP levels.
# To determine percent activity for a tested compound, the FRET signal value obtained at a particular concentration are compared to the Maximal FRET signal value obtained for 4-(4-{4-Nitro-3-[4-(pyridin-2-ylsulfanyl)-piperidin-1-yl]-phenoxy}-phenyl)-butan-2-one (WO 2004/076,413) or 4-[6-(4-Methanesulfonyl-phenyl-amino)-5-nitro-pyrimidin-4-yl-oxy]-piperidine-1-carboxylic acid tert-butyl ester (US 2005/070,562). The maximal activity of 4-(4-{4-Nitro-3-[4-(pyridin-2-ylsulfanyl)-piperidin-1-yl]-phenoxy}-phenyl)-butan-2-one or 4-[6-(4-Methanesulfonyl-phenyl-amino)-5-nitro-pyrimidin-4-yl-oxy]-piperidine-1-carboxylic acid tert-butyl ester is designated as 100% activity. Typically, the concentration 4-(4-{4-Nitro-3-[4-(pyridin-2-ylsulfanyl)-piperidin-1-yl]-phenoxy}-phenyl)-butan-2-one or 4-[6-(4-Methanesulfonyl-phenyl-amino)-5-nitro-pyrimidin-4-yl-oxy]-piperidine-1-carboxylic acid tert-butyl ester was approximately 10 μM. […]
row,Structure (SMILES),% Activity at 3 uM [%]
1,"CC(C)(C)OC(=O)N1CCC(n2ncc3c(Oc4ccc(S(C)(=O)=O)cc4)ncnc32)CC1 [Example 1, tert-butyl 4-(4-(4-(methylsulfonyl)phenoxy)-1H-pyrazolo[3,4-d]pyrimidin-1-yl)piperidine-1-carboxylate]",59.01
2,"COc1ccc(Oc2ncnc3c2cnn3C2CCN(C(=O)OC(C)(C)C)CC2)cc1 [Example 2, tert-butyl 4-(4-(4-methoxyphenoxy)-1H-pyrazolo[3,4-d]pyrimidin-1-yl)piperidine-1-carboxylate]",69.8
3,"CC(C)(C)OC(=O)N1CCC(n2ncc3c(Oc4ccc(Oc5ccc(C(F)(F)F)cc5)cc4)ncnc32)CC1 [Example 3, tert-butyl 4-(4-(4-(4-(trifluoromethyl)phenoxy)phenoxy)-1H-pyrazolo[3,4-d]pyrimidin-1-yl)piperidine-1-carboxylate]",12.73
4,"CC(C)(C)OC(=O)N1CCC(n2ncc3c(Oc4ccc(-n5ccnc5)cc4)ncnc32)CC1 [Example 4, tert-butyl 4-(4-(4-(1H-imidazol-1-yl)phenoxy)-1H-pyrazolo[3,4-d]pyrimidin-1-yl)piperidine-1-carboxylate]",69.49
5,"CC(C)(C)OC(=O)N1CCC(n2ncc3c(Sc4ccc(S(C)(=O)=O)cc4)ncnc32)CC1 [Example 5, tert-butyl 4-(4-(4-(methylsulfonyl)phenylthio)-1H-pyrazolo[3,4-d]pyrimidin-1-yl)piperidine-1-carboxylate]",60.11
6,"CC(C)(C)OC(=O)N1CCC(n2ncc3c(Oc4ccc(Oc5ccccc5)cc4)ncnc32)CC1 [Example 6, tert-butyl 4-(4-(4-phenoxyphenoxy)-1H-pyrazolo[3,4-d]pyrimidin-1-yl)piperidine-1-carboxylate]",56.96
7,"CC(C)(C)OC(=O)N1CCC(Cn2ncc3c(Oc4ccc(S(C)(=O)=O)cc4)ncnc32)CC1 [Example 50, tert-butyl 4-((4-(4-(methylsulfonyl)phenoxy)-1H-pyrazolo[3,4-d]pyrimidin-1-yl)methyl)piperidine-1-carboxylate]",59.61
8,"CC(C)(C)OC(=O)N1CCC(Cn2ncc3c(Oc4ccc(S(C)(=O)=O)cc4)ncnc32)C1 (stereo not shown) [Example 61, tert-butyl 3-((4-(4-(methylsulfonyl)phenoxy)-1H-pyrazolo[3,4-d]pyrimidin-1-yl)methyl)pyrrolidine-1-carboxylate]",74.66
9,"CC(C)(C)OC(=O)N1CCC(Cn2ncc3c(Oc4ccc(-n5cncn5)cc4)ncnc32)C1 (stereo not shown) [Example 62, tert-butyl 3-((4-(4-(1H-1,2,4-triazol-1-yl)phenoxy)-1H-pyrazolo[3,4-d]pyrimidin-1-yl)methyl)pyrrolidine-1-carboxylate]",67.37
10,"CC(C)CS(=O)(=O)N1CCC(n2ncc3c(Oc4ccc(S(C)(=O)=O)cc4)ncnc32)CC1 [Example 63, 1-(1-(isobutylsulfonyl)piperidin-4-yl)-4-(4-(methylsulfonyl)phenoxy)-1H-pyrazolo[3,4-d]pyrimidine]",51.02
11,"Cc1ccc(S(=O)(=O)N2CCC(n3ncc4c(Oc5ccc(S(C)(=O)=O)cc5)ncnc43)CC2)cc1 [Example 64, 4-(4-(methylsulfonyl)phenoxy)-1-(1-tosylpiperidin-4-yl)-1H-pyrazolo[3,4-d]pyrimidine]",2.07
12,"CS(=O)(=O)c1ccc(Oc2ncnc3c2cnn3C2CCN(S(=O)(=O)Cc3ccccc3)CC2)cc1 [Example 65, 1-(1-(benzylsulfonyl)piperidin-4-yl)-4-(4-(methylsulfonyl)phenoxy)-1H-pyrazolo[3,4-d]pyrimidine]",24.15
13,"CS(=O)(=O)c1ccc(Oc2ncnc3c2cnn3C2CCN(S(=O)(=O)C3CC3)CC2)cc1 [Example 66, 1-(1-(cyclopropylsulfonyl)piperidin-4-yl)-4-(4-(methylsulfonyl)phenoxy)-1H-pyrazolo[3,4-d]pyrimidine]",9.73
14,"CN(c1ccc(S(C)(=O)=O)cc1)c1ncnc2c1nnn2C1CCN(C(=O)OC(C)(C)C)CC1 [Example 67, tert-butyl 4-(7-(methyl(4-(methylsulfonyl)phenyl)amino)-3H-[1,2,3]triazolo[4,5-d]pyrimidin-3-yl)piperidine-1-carboxylate]",1.95
15,"CC(C)(C)OC(=O)N1CCC(n2nnc3c(Oc4ccc(S(C)(=O)=O)cc4)ncnc32)CC1 [Example 68, tert-butyl 4-(7-(4-(methylsulfonyl)phenoxy)-3H-[1,2,3]triazolo[4,5-d]pyrimidin-3-yl)piperidine-1-carboxylate]",59.01
16,"CCOC(=O)N1CCC(n2nnc3c(Oc4ccc(S(C)(=O)=O)cc4)ncnc32)CC1 [Example 69, ethyl 4-(7-(4-(methylsulfonyl)phenoxy)-3H-[1,2,3]triazolo[4,5-d]pyrimidin-3-yl)piperidine-1-carboxylate]",48.23
